This experiment deals with Nude mice, LX-1 lung xenograft intrarenal, tumor weight T/C. The experiment is described as follows: NCI In Vivo Anticancer Drug Screen. Data for tumor model Human Lung LX-1 Xenograft (intrarenal inoculation) in NU/NU BALB/C (nude) mice. Particulars: endpoint: mean tumor weight change, higher = larger tumour. The procedure: The antitumor activity of compounds was measured in mice bearing transplantable tumors. Survival or tumor size were measured and the results are expressed as the measurement made in the treated group (T) divided by the measurement made in the vehicle treated control group (C). The tumor model used in this assay is Human Lung LX-1 Xenograft (intrarenal inoculation) in NU/NU BALB/C (nude) mice
Background: A xenograft is tissue or cells of one species grown in another, often human tumour cells in immunodeficient mice.

Setting [1] is: dose: 300.0 mg/kg/injection, schedule: Q04DX003 (sc), vehicle: saline with Tween-80.
[2] abbreviates: dose: 600.0 mg/kg/injection, schedule: Q04DX003 (sc), vehicle: saline with Tween-80.
The mark [3] stands for this setting: dose: 1200.0 mg/kg/injection, schedule: Q04DX003 (sc), vehicle: saline with Tween-80.
The mark [4] stands for this setting: dose: 2400.0 mg/kg/injection, schedule: Q04DX003 (sc), vehicle: saline with Tween-80.
Where [5] appears, read: dose: 300.0 mg/kg/injection, schedule: Q04DX003 (sc), vehicle: Klucel (hydroxypropylcellulose) (HPC).
Setting [6] is: dose: 600.0 mg/kg/injection, schedule: Q04DX003 (sc), vehicle: Klucel (hydroxypropylcellulose) (HPC).
Setting [7] is: dose: 1200.0 mg/kg/injection, schedule: Q04DX003 (sc), vehicle: Klucel (hydroxypropylcellulose) (HPC).
Setting [8] is: dose: 2400.0 mg/kg/injection, schedule: Q04DX003 (sc), vehicle: Klucel (hydroxypropylcellulose) (HPC).

Results filed as inconclusive are left out.

For the compound `O=C(O)C1(NO)CCCCC1`, the T/C reads like this: (dose: 200.0 mg/kg/injection, schedule: Q04DX003 (sc), vehicle: Klucel (hydroxypropylcellulose) (HPC)) 81 % of control; (dose: 400.0 mg/kg/injection, schedule: Q04DX003 (sc), vehicle: Klucel (hydroxypropylcellulose) (HPC)) 85 % of control; (dose: 800.0 mg/kg/injection, schedule: Q04DX003 (sc), vehicle: Klucel (hydroxypropylcellulose) (HPC)) 81 % of control; (dose: 1600.0 mg/kg/injection, schedule: Q04DX003 (sc), vehicle: Klucel (hydroxypropylcellulose) (HPC)) 77 % of control.
In the case of `CC(C)CCC(=O)c1ccoc1`, the T/C by setting is: (dose: 0.75 mg/kg/injection, schedule: Q01DX010 (ip), vehicle: saline with Tween-80) 123 % of control; (dose: 3.0 mg/kg/injection, schedule: Q01DX010 (ip), vehicle: saline with Tween-80) 71 % of control; (dose: 6.0 mg/kg/injection, schedule: Q01DX010 (ip), vehicle: saline with Tween-80) 73 % of control.
In the case of `Nc1nc(=S)c2ncn(C3CC(O)C(CO)O3)c2[nH]1` (centres undefined), the T/C is, setting by setting: (dose: 50.0 mg/kg/injection, schedule: Q01DX010 (sc), vehicle: Klucel (hydroxypropylcellulose) (HPC)) 152 % of control; (dose: 100.0 mg/kg/injection, schedule: Q01DX010 (sc), vehicle: Klucel (hydroxypropylcellulose) (HPC)) 118 % of control; (dose: 200.0 mg/kg/injection, schedule: Q01DX010 (sc), vehicle: Klucel (hydroxypropylcellulose) (HPC)) 73 % of control; (dose: 400.0 mg/kg/injection, schedule: Q01DX010 (sc), vehicle: Klucel (hydroxypropylcellulose) (HPC)) 107 % of control.
On to `CC1CCC(NC(=O)N(CCCl)N=O)CC1` (centres undefined), for which the T/C is 67 % of control (dose: 3.13 mg/kg/injection, schedule: Q01DX010 (sc), vehicle: Klucel (hydroxypropylcellulose) (HPC)) and 3 % of control (dose: 6.25 mg/kg/injection, schedule: Q01DX010 (sc), vehicle: Klucel (hydroxypropylcellulose) (HPC)).
`Cc1ccc(S(=O)(=O)N/N=C/C(Br)=C(/Br)C(=O)O)cc1`: the T/C by setting is: (dose: 1.25 mg/kg/injection, schedule: Q04DX003 (sc), vehicle: saline) 122 % of control; (dose: 5.0 mg/kg/injection, schedule: Q04DX003 (sc), vehicle: saline) 115 % of control; (dose: 10.0 mg/kg/injection, schedule: Q04DX003 (sc), vehicle: saline) 82 % of control.
In the case of `N/C=N/O`, the T/C was 180 % of control (dose: 200.0 mg/kg/injection, schedule: Q01DX010 (sc), vehicle: saline) and 161 % of control (dose: 400.0 mg/kg/injection, schedule: Q01DX010 (sc), vehicle: saline).
With `N#CN=[N+]([O-])c1ccc(C(=O)O)cc1`, the T/C is 66 % of control (dose: 11.25 mg/kg/injection, schedule: Q04DX003 (sc), vehicle: Klucel (hydroxypropylcellulose) (HPC)); 65 % of control (dose: 22.5 mg/kg/injection, schedule: Q04DX003 (sc), vehicle: Klucel (hydroxypropylcellulose) (HPC)); 47 % of control (dose: 45.0 mg/kg/injection, schedule: Q04DX003 (sc), vehicle: Klucel (hydroxypropylcellulose) (HPC)).
Regarding `N=c1c(C(=O)OCc2ccccc2)ncc(CCl)n1O`, the T/C reads like this: under setting [1], 87 % of control; under setting [2], 83 % of control; under setting [3], 91 % of control; under setting [4], 81 % of control.
On to `CC[C@@]1(O)C[C@H](OC2CC(N(C)C)C(OC3CC(O)C(OC4CCC(=O)C(C)O4)C(C)O3)C(C)O2)c2c(cc3c(c2O)C(=O)c2c(O)cccc2C3=O)[C@H]1C(=O)OC` (some centres undefined), for which the T/C reads like this: (dose: 1.0 mg/kg/injection, schedule: Q01DX010 (sc), vehicle: water) 36 % of control; (dose: 1.66 mg/kg/injection, schedule: Q04DX003 (sc), vehicle: water) 63 % of control; (dose: 2.0 mg/kg/injection, schedule: Q01DX010 (sc), vehicle: water) 6 % of control; (dose: 3.33 mg/kg/injection, schedule: Q04DX003 (sc), vehicle: water) 60 % of control; (dose: 6.65 mg/kg/injection, schedule: Q04DX003 (sc), vehicle: water) 18 % of control.
On to `CC(=Nc1ccccc1)C1=C(O)C(Cc2ccccc2)NC1=O` (centres undefined), for which the T/C runs as follows: under setting [1], 52 % of control; under setting [2], 32 % of control; under setting [3], 40 % of control; under setting [4], 30 % of control.
With `CCOC(C)C(/C=N/NC(N)=S)=NNC(N)=S` (centres undefined), the T/C (dose: 200.0 mg/kg/injection, schedule: Q01DX010 (sc), vehicle: saline with Tween-80) is 231 % of control; the T/C (dose: 400.0 mg/kg/injection, schedule: Q01DX010 (sc), vehicle: saline with Tween-80) is 233 % of control; the T/C (dose: 800.0 mg/kg/injection, schedule: Q01DX010 (sc), vehicle: saline with Tween-80) was 78 % of control.
Take `CN(C)P(=O)(Oc1ccccc1)N(C)C`: the T/C was 99 % of control (dose: 150.0 mg/kg/injection, schedule: Q04DX003 (sc), vehicle: saline with Tween-80); 111 % of control under setting [1]; 72 % of control under setting [2]; 83 % of control under setting [3].
Regarding `NC(CCC(=O)NC(CS)C(=O)NCC(=O)O)C(=O)O` (centres undefined), the T/C is 97 % of control (dose: 300.0 mg/kg/injection, schedule: Q04DX003 (sc), vehicle: saline); 69 % of control (dose: 600.0 mg/kg/injection, schedule: Q04DX003 (sc), vehicle: saline); 74 % of control (dose: 1200.0 mg/kg/injection, schedule: Q04DX003 (sc), vehicle: saline); 121 % of control (dose: 2400.0 mg/kg/injection, schedule: Q04DX003 (sc), vehicle: saline).
For the compound `CC(=O)Oc1[nH]c(=O)c2cccc3c2c1CCC3`, the T/C is 62 % of control under setting [1], 68 % of control under setting [2], 90 % of control under setting [3] and 83 % of control under setting [4].
In the case of `O=Cc1ccc(C=O)c(Cl)c1`, the T/C reads like this: under setting [5], 81 % of control; under setting [6], 88 % of control; under setting [7], 79 % of control; under setting [8], 152 % of control.
In the case of `CCCCCCCCNc1cc2c3c(c1)CCCN3CCC2`, the T/C (dose: 6.0 mg/kg/injection, schedule: Q04DX003 (sc), vehicle: Klucel (hydroxypropylcellulose) (HPC)) was 155 % of control; the T/C (dose: 12.0 mg/kg/injection, schedule: Q04DX003 (sc), vehicle: Klucel (hydroxypropylcellulose) (HPC)) was 118 % of control; the T/C (dose: 24.0 mg/kg/injection, schedule: Q04DX003 (sc), vehicle: Klucel (hydroxypropylcellulose) (HPC)) is 106 % of control.
As for `CCC1CCCCN1C(=S)N/N=C(\C)c1ccccn1` (centres undefined), the T/C was 100 % of control (dose: 18.75 mg/kg/injection, schedule: Q04DX003 (sc), vehicle: saline with Tween-80); 83 % of control (dose: 37.5 mg/kg/injection, schedule: Q04DX003 (sc), vehicle: saline with Tween-80); 81 % of control (dose: 75.0 mg/kg/injection, schedule: Q04DX003 (sc), vehicle: saline with Tween-80).
With `COc1ccc2ccccc2c1C1NC(=O)c2ccccc2N1` (centres undefined), the T/C runs as follows: under setting [5], 113 % of control; under setting [6], 78 % of control; under setting [7], 83 % of control; under setting [8], 83 % of control.
Regarding `Oc1cc2ccccc2c(-c2c(O)c(O)cc3ccccc23)c1O`, the T/C is, setting by setting: under setting [2], 122 % of control; under setting [3], 95 % of control; under setting [4], 84 % of control.
Turning to `CC(=O)OCN(C)C=O`, the T/C is, setting by setting: (dose: 300.0 mg/kg/injection, schedule: Q01DX010 (sc), vehicle: water) 65 % of control; (dose: 600.0 mg/kg/injection, schedule: Q01DX010 (sc), vehicle: water) 52 % of control; (dose: 1200.0 mg/kg/injection, schedule: Q01DX010 (sc), vehicle: water) 40 % of control; (dose: 2400.0 mg/kg/injection, schedule: Q01DX010 (sc), vehicle: water) 45 % of control.
With `O=C1NC(O)CCN1C1OC(CO)C(O)C1O` (centres undefined), the T/C reads like this: (dose: 200.0 mg/kg/injection, schedule: Q01DX010 (sc), vehicle: water) 257 % of control; (dose: 400.0 mg/kg/injection, schedule: Q01DX010 (sc), vehicle: water) 196 % of control; (dose: 800.0 mg/kg/injection, schedule: Q01DX010 (sc), vehicle: water) 223 % of control; (dose: 1600.0 mg/kg/injection, schedule: Q01DX010 (sc), vehicle: water) 176 % of control.

The record behind these values is PubChem BioAssay AID266 (DTP/NCI, 2004).
